Measurements published in paper PMC1892040 (PLoS Medicine, 2007).
Read-outs that look alike come from different tables or passages of the source.

Columns and labels:
[1] = target: T1, S. mansoni TGR (Schistosoma mansoni, UniProt Q962Y6)
T1 sequence (Q962Y6 1-598): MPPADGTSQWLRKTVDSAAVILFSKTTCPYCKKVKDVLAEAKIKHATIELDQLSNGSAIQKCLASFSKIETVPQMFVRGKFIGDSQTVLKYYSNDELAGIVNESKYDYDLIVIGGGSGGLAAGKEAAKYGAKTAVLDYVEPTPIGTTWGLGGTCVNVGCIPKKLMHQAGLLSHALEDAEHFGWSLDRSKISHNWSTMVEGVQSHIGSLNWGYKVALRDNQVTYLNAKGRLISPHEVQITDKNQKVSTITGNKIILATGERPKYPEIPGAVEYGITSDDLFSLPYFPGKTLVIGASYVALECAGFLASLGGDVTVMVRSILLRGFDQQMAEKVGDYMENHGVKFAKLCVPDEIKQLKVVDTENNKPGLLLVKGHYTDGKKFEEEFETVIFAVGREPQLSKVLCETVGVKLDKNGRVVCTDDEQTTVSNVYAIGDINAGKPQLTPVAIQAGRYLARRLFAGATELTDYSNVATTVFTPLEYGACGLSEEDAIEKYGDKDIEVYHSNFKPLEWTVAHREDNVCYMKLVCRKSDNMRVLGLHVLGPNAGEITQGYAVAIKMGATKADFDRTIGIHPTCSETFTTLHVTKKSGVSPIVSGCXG
Method: (§1) Assays were performed at 25 °C in 0.1 M potassium phosphate (pH 7.4), 10 mM EDTA using 100 μM NADPH unless otherwise stated.
(§2) Initial inhibitor screens were conducted in 200 μl volumes in 96 well plates with 50 μM inhibitor, 100 μM NADPH, and 5 nM TGR in 0.1 M potassium phosphate (pH 7.4), 10 mM EDTA with a preincubation step of 15 min. […] All assays were done in triplicate.

[2] = target: T1, S. mansoni TGR; test: Kinetic analysis of recombinant S. mansoni TGR with substrates; details: for Specific activity, S. mansoni TGR: NADPH + substrate; for Specific activity of recombinant TGR with substrate: Trx coupled to insulin reduction, HED in Grx assay
Method: Kinetic parameters were determined using Lineweaver–Burk plots using KaleidaGraph 4 (Synergy Software, http://www.synergy.com) least squares best fit of data and varying concentrations of one substrate while maintaining the concentration of other substrates. […] All assays were done in triplicate.

[3] = target: T2, Human TrxR (Homo sapiens, UniProt Q16881); details: read-out: IC50 Human TrxR, DTNB/Trx; cited from earlier work
T2 sequence (Q16881 1-499 isoform Q16881-5): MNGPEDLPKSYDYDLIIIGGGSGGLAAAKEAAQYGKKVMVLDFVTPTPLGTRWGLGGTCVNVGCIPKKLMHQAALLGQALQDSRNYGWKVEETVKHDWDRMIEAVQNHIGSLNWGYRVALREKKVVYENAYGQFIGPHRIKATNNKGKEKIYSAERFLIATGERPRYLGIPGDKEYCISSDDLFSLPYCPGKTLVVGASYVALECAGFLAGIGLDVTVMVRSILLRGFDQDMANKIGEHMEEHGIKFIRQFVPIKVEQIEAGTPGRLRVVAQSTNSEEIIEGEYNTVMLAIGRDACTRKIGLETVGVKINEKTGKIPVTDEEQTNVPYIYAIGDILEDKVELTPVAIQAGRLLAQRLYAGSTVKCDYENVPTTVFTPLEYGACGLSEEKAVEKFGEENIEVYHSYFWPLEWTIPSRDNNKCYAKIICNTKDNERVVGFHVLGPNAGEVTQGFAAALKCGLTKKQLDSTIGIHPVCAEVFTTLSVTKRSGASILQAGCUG

[4] = target: T1, S. mansoni TGR; type: biochemical; design: The entire TGR ORF plus the SECIS element was subcloned into pET-24a; made in house; host or cells: Escherichia coli BL21(DE3) with pSUABC; details: read-out: IC50 S. mansoni TGR, DTNB (TrxR activity)
Method: as §1, §2

[5] = target: T1, S. mansoni TGR; type: biochemical; design: The entire TGR ORF plus the SECIS element was subcloned into pET-24a; made in house; host or cells: Escherichia coli BL21(DE3) with pSUABC; details: read-out: IC50 S. mansoni TGR, GSSG (GR activity)
Method: as §1, §2

[6] = target: T1, S. mansoni TGR; test: IC50, Grx activity of TGR (HED assay), 15 min preincubation; type: biochemical; design: The entire TGR ORF plus the SECIS element was subcloned into pET-24a; made in house; host or cells: Escherichia coli BL21(DE3) with pSUABC; details: 8 mM HED plus 1 mM GSH, 15 min preincubation with 100 μM NADPH
Method: as §1, §2

[7] = target: T3, Human GR (Homo sapiens, UniProt P00390); details: read-out: IC50 Human GR, GSSG; cited from earlier work
T3 sequence (P00390 44-522): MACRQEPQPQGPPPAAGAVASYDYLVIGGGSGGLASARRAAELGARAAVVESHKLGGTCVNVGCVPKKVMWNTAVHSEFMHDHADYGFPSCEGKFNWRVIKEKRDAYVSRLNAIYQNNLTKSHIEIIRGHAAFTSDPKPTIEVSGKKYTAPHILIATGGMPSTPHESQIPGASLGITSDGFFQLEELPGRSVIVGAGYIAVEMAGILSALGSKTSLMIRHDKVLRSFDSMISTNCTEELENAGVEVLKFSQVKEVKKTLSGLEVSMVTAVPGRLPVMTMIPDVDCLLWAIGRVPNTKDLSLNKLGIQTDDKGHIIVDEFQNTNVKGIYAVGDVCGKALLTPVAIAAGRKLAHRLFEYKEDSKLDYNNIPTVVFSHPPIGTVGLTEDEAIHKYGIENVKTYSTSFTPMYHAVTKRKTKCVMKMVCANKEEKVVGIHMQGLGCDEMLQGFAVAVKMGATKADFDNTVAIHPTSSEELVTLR

[8] = target: T1, S. mansoni TGR; test: biochemical; details: read-out: Activity of Enzyme (% of Uninhibited Enzyme)
Method: as §1, §2

[9] = test system: Human TrxR1; details: cited from earlier work; for Specific activity, Human TrxR1: NADPH + substrate, ND, no activity detected; for Km: read-out: Apparent Km, Human TrxR1
[10] = test system: Human TGR; details: cited from earlier work; for Specific activity, Human TGR: NADPH + substrate; for Km: read-out: Apparent Km, Human TGR
[11] = test system: schistosomula; test: Schistosomula survival after RNAi and/or drug treatment; type: cell-based, Schistosoma mansoni; details: 2 μM praziquantel
Method: Cercariae were mechanically transformed to schistosomula by vortexing, and bodies were separated from tails by Percoll gradient centrifugation as described [13]. Immediately after transformation, TGR dsRNA or irrelevant dsRNA (each at 54 μg/ml) was added to ~500 schistosomula in 50 μl water followed by incubation at 37 °C for 30 min. After addition of 250 μl of RPMI-1640 medium, 300 U/ml penicillin, and 175 μg/ml streptomycin, parasites were incubated at 37 °C in 5% CO2 atmosphere for 4 d. Reduced O2 tension was obtained by filtering media and purging with 95% N2, 5% CO2 for 20 min before use. Parasites were cultured during the course of the experiment in the appropriate gaseous mix at 37 °C in a sealed modular incubator chamber (Billups-Rothenberg, http://www.brincubator.com) flushed with the same gaseous mix. On day 2 of the experiment, 50 μl of fresh media was added. Schistosomula were assessed daily for viability by microscopy. For each time point at least 1,500 parasites were scored as alive or dead in each experiment (three replicates of 500 each), and each experiment was repeated three times.
(B) Parasites were cultured in the presence of double-stranded TGR RNA (dashed lines) or of double-stranded irrelevant RNA (solid lines) in 20% O2 (♦) or 0% O2 (). […] (C) Combination of RNAi and drug treatments. Solid lines are irrelevant dsRNA treatments and dashed lines are dsTGR treatments; no additions (♦), 2 μM praziquantel () and 2 μM AF (▴). […] In each experiment for each time point at least 1,500 parasites were scored as alive or dead (three replicates of 500 parasites). The error bars represent the standard deviations of three independent experiments.

[12] = substrate of TGR (20 nM), 25 °C, pH 7.4, 100 μM NADPH
[13] = substrate of TGR (20 nM), 25 °C, pH 7.4, 100 μM NADPH, ± SD
[14] = 3 mM DTNB, 15 min preincubation with 100 μM NADPH
[15] = 100 μM GSSG, 15 min preincubation with 100 μM NADPH
[16] = read-out: Apparent Km, S. mansoni TGR

O=C1C=CC(=O)c2ccccc21 [Compound M5]
activity [1]: 37%

O=[Se]([O-])[O-].[Na+].[Na+] [Na2SeO3, sodium selenite]
kcat [2, 12]: 2.1 s⁻¹ | Km [2, 13]: 66.7 ± 6.9 µM | Vmax [2, 13]: 2.54 ± 0.046 µM/min

O=C(O)CCCC[C@@H]1CCSS1 (racemic) [Lipoic acid]
kcat [2, 12]: 1.7 s⁻¹ | Km [2, 13]: 2610 µM | Vmax [2, 13]: 2.03 ± 0.135 µM/min

Cc1cc2nc3cc(C)c(N)cc3[n+](-c3ccccc3)c2cc1N [Safranin]
activity [1]: 75%

CC(C)(C)OO [t-Butyl-OOH, tert-butyl hydroperoxide]
kcat [2, 12]: 10.7 s⁻¹ | Km [2, 13]: 48600 µM | Vmax [2, 13]: 12.8 ± 0.33 µM/min

O=C(O)CC([S-])C(=O)O.[Au+] (stereo not drawn) [Aurothiomalate]
activity [1]: 0% | IC50 [3]: 280 nM | IC50 [4, 14]: 90 nM | IC50 [5, 15]: 50 nM | IC50 [6]: 50 nM

COC1=C(OC)C(=O)C(C/C=C(\C)CC/C=C(\C)CC/C=C(\C)CC/C=C(\C)CC/C=C(\C)CC/C=C(\C)CC/C=C(\C)CC/C=C(\C)CC/C=C(\C)CCC=C(C)C)=C(C)C1=O [Ubiquinone]
kcat [2, 12]: <0.25 s⁻¹ | Vmax [2, 13]: <0.3 µM/min

OC[C@H]1O[C@H]([S-])[C@H](O)[C@@H](O)[C@@H]1O.[Au+] [Aurothioglucose]
Activity of Enzyme (% of Uninhibited Enzyme) [1]: 0% | IC50 [7]: > 100000 nM | IC50 [3]: 65 nM | IC50 [4]: 70 nM | IC50 [5]: 3000 nM | IC50 [6]: 400 nM

CC1=CC(=O)c2ccccc2C1=O [Menadione]
activity at 50 µM [8]: 18%

OO [Compound H2O2, H2O2]
kcat [2, 12]: 9.4 s⁻¹ | Km [2, 13]: 68000 µM | Vmax [2, 13]: 11.3 ± 0.46 µM/min

CN(C)CCC(=O)c1ccccc1 [Compound 3-DAP]
IC50 [4, 14]: 500 nM | IC50 [5, 15]: 7000 nM

O=C(O)c1cc(SSc2ccc([N+](=O)[O-])c(C(=O)O)c2)ccc1[N+](=O)[O-] [DTNB, 5,5′-dithiobis(2-nitrobenzoic acid)]
Specific activity, S. mansoni TGR [2]: 10.2 µmol/min/mg | Specific activity of recombinant TGR with substrate [2]: 10.2 U/mg | kcat [2, 12]: 16 s⁻¹ | Km [2, 13]: 114 ± 9 µM | Vmax [2, 13]: 19.2 ± 1.6 µM/min | Specific activity, Human TrxR1 [9]: 25 µmol/min/mg | Apparent kcat, Human TrxR1 [9]: 86 s⁻¹ | Km [9]: 212 µM | Specific activity, Human TGR [10]: 3.1 µmol/min/mg | Apparent kcat, Human TGR [10]: 6.5 s⁻¹ | Km [10]: 14.7 µM

CC1=CC(=O)c2c(O)cccc2C1=O [Plumbagin]
activity at 50 µM [8]: 15%

CN(C)c1ccc2nc3ccc(=[N+](C)C)cc-3sc2c1 [Methylene blue]
activity at 50 µM [8]: 100%

OCCSSCCO [HED, β-hydroxyethyl disulfide]
Apparent kcat, S. mansoni TGR [2]: 17.8 s⁻¹ | Specific activity, S. mansoni TGR [2]: 9.9 µmol/min/mg | Specific activity of recombinant TGR with substrate [2]: 9.9 U/mg | Km [2, 16]: 1870 µM | kcat [2, 12]: 17.8 s⁻¹ | Km [2, 13]: 1870 µM | Vmax [2, 13]: 21.4 ± 0.33 µM/min | Specific activity, Human TGR [10]: 1.9 µmol/min/mg | Apparent kcat, Human TGR [10]: 1.2 s⁻¹ | Km [10]: 45.2 µM

O=C(C1CCCCC1)N1CC(=O)N2CCc3ccccc3C2C1 (stereo not drawn) [Praziquantel]
Effect on schistosomula survival alone or in combination with RNAi [11]: no effect | Inhibition of TGR, in words [1]: no inhibitory activity | activity at 50 µM [8]: 100%

O=C1OC(C(O)CO)C(=O)C1=O (stereo not drawn) [DHAA, dehydroascorbic acid]
kcat [2, 12]: <0.25 s⁻¹ | Vmax [2, 13]: <0.3 µM/min

O=C1C=CC(=O)c2c(O)ccc(O)c21 [Naphthazarin]
IC50 [3]: 650 nM

B1: Trx: 12 kDa protein thioredoxin, substrate of TrxR and TGR enzymes (protein, UniProt P10599 2-105, looked up)
Thioredoxin: VKQIESKTAFQEALDAAGDKLVVVDFSATWCGPCKMIKPFFHSLSEKYSNVIFLEVDVDDCQDVASECEVKCMPTFQFFKKGQKVGEFSGANKEKLEATINELV
Apparent kcat, S. mansoni TGR [2]: 30 s⁻¹ | Specific activity, S. mansoni TGR [2]: 2.2 µmol/min/mg | Specific activity of recombinant TGR with substrate [2]: 2.2 U/mg | Km [2, 16]: 6.37 µM | Specific activity, Human TrxR1 [9]: 5.9 µmol/min/mg | Apparent kcat, Human TrxR1 [9]: 9.8 s⁻¹ | Km [9]: 4.73 µM | Specific activity, Human TGR [10]: 4.2 µmol/min/mg | Apparent kcat, Human TGR [10]: 5.7 s⁻¹ | Km [10]: 3 µM
